# Test system: weeds
# Test: Weed control by mulch, dithiopyr and mulch/dithiopyr compositions applied to the ground
# Assay type: in vivo
# Details: dithiopyr alone, no mulch, application rate 560 grams per hectare
# Excerpt: In the following examples, dithiopyr is first dissolved in a warm solvent such as dipropylene glycol at 12-18 percent, by weight. This solution was then sprayed onto a clay carrier.
# The results provided by the composition of this invention were compared with the results obtained using the herbicide and the mulch individually.
compound,measurement,value
"CSC(=O)c1c(C(F)F)nc(C(F)(F)F)c(C(=O)SC)c1CC(C)C [Dithiopyr, 2-difluoromethyl-4-(2-methylpropyl)-6-trifluoromethyl-3,5-pyridinedicarbothioic acid, S,S-dimethyl ester]",% Weed Control,30%

# From patent publication US6599859B1, “Mulch/herbicide composition” (Dow AgroSciences LLC, priority 2001, dated 2003)
